Laboratory results reported in US20250073255A1, “USE OF FA-TYPE LIPID COMPOUNDS IN PREPARATION OF NUCLEIC ACID DELIVERY REAGENT AND RELATED PRODUCT” (BEIJING BAISHIKANG PHARMACEUTICAL TECHNOLOGY (BSJPHARMA) …, priority 2021, published 2025).

Test system: C57BL/6 male mice
Test: In vivo delivery study of lipid nucleic acid mixture (oral gavage, RT-qPCR of PGY-sRNA-26 in tissues)
Design: species or system mouse
Details: for overall delivery efficacy: delivering nucleic acids into each tissue and blood tested: 100 μg lipid:10 nmol PGY-sRNA-26, all tissues and blood tested; for oral delivery of single-stranded sRNA nucleic acids into mouse blood / oral delivery of single-stranded sRNA nucleic acids into mouse brain tissue / oral delivery of single-stranded sRNA nucleic acids into mouse femur / oral delivery of single-stranded sRNA nucleic acids into mouse heart tissue / oral delivery of single-stranded sRNA nucleic acids into mouse intestinal tissue / oral delivery of single-stranded sRNA nucleic acids into mouse kidney tissue / oral delivery of single-stranded sRNA nucleic acids into mouse liver tissue / oral delivery of single-stranded sRNA nucleic acids into mouse lung tissue / oral delivery of single-stranded sRNA nucleic acids into mouse spleen tissue / oral delivery of single-stranded sRNA nucleic acids into mouse stomach tissue: 100 μg lipid:10 nmol PGY-sRNA-26, sampled after 12 hours; for oral delivery of single-stranded sRNA nucleic acids into mouse heart tissue: vs free uptake group; for oral delivery of single-stranded sRNA nucleic acids into mouse intestinal tissue: intestine
Procedure: 10 nmol of small RNA (as shown in Table 2) was dissolved in 400 μl of DEPC-treated water in a glass tube, 10 μl of the corresponding lipid stock solution was added such that the lipid mass in the system was 100 μg. The mixture was mixed thoroughly, heated in a 90° C. water bath for 15 minutes, and then cooled naturally to obtain the lipid nucleic acid mixture of lipid and small RNA.
C57BL/6 male mice, approximately 6 weeks old, weighing […], were obtained from Beijing Vital River Laboratory Animal Technology Co., Ltd. The mice were housed in the SPF-grade animal facility at the Animal Center of the Institute of Basic Medical Sciences, Chinese Academy of Medical Sciences. The mice were fasted for 12 hours before gavage administration.
The lipid nucleic acid mixture was prepared following the method described in Example 2. The resultant lipid nucleic acid mixture was orally administered to each mouse at a dose of 100 μg lipid:10 nmol single-stranded 3-methylated small RNA PGY-sRNA-26.
• 1) Blank group (n=4): mice were administered with 500 μl saline by gavage, this group served as a blank control; • 2) Free uptake group (n=4): mice were directly administered with small RNA PGY-sRNA-26 solution (10 nmol/mouse, 500 l) by gavage, this group served as a negative control; • 3) Lipid-treated group (n=4): mice were administered with 500 μl lipid nucleic acid mixture prepared in step 2 by gavage.
After 12 hours of gavage administration, 500 μl blood from the eyeball of each mouse was sampled, added to 1.5 ml Trizol Reagent LS (purchased from Invitrogen), thoroughly mixed for lysis. 3 ml of Trizol Reagent LSwas added to tissue samples and homogenized for complete lysis, wherein the sampled tissues include heart, liver, spleen, lung, kidney, stomach, intestine, brain, blood, femur, pancreas. RNAwas extracted from 1 ml of the blood or the tissue lysate following the steps below: • Centrifuge at 4° C., 12,000 rpm for 5 min, discard the precipitate, transfer Trizol to a new centrifuge tube; • Add chloroform at 200 μL chloroform/mL Trizol, shake well, stand at room temperature for 5 min; • Centrifuge at 4° C., 12,000 rpm for 15 min; • Take the upper aqueous phase to another centrifuge tube, add isopropanol at 0.4 mL isopropanol/mL Trizol, mix well, and stand at low temperature for 10-20 min; • Centrifuge at 4° C., 12,000 rpm for 15 min, discard the supernatant, RNA precipitated at the bottom of the tube; • Add 1 mL of 75% ethanol, gently shake the centrifuge tube, suspend the precipitate; • Centrifuge at 4° C., 12,000 rpm for 15 min, discard the supernatant, add 1 mL of 75% ethanol, gently shake the centrifuge tube, suspend the precipitate; • Centrifuge at 4° C., 12,000 rpm for 15 min, discard the supernatant, air-dry at room temperature, dissolve RNA samples in 50 μL RNase-free H2O, measure OD value to quantify RNA concentration. 3.3 Reverse Transcription of sRNA to cDNA:
sRNA was reverse transcribed to cDNA using the High-Capacity cDNA Reverse Transcription Kit (Applied Biosystems, cat. no. 4368813) by stem-loop method (see, e.g., “Real-time quantification of microRNAs by stem-loop RT-PCR, Nucleic Acids Res. 2005 Nov. 27; 33(20):e179”, incorporated herein by reference). The reverse transcription system is as follows: Template RNA (200 ng/μL) 10 μL, 10×RT Buffer 2.0 μL, 25×dNTP Mix (100 mM) 0.8 μL, U6 RT stem-loop primer (10 μM) 2.0 μL, PGY-sRNA-26 RT stem-loop primer (10 μM) 2.0 μL, MultiScribe™ Reverse Transcriptase (50 U/μL) 1.0 μL, RNAse Inhibitor (40 U/μL) 1.0 μL, nuclease-free H2O 1.2 μL. After transient centrifugation, the reverse transcription system was placed in a PCR machine with the following reaction conditions: (1) 25° C., 10 min; (2) 37° C., 120 min; (3) 85° C., 5 min; (4) 4° C., stop reaction. After the reaction, add 20 μL RNAse-free ddH2O, adjust the final volume to 40 μL. […]

Row | SMILES | overall delivery efficacy: delivering nucleic acids into each tissue and blood tested | oral delivery of single-stranded sRNA nucleic acids into mouse blood | oral delivery of single-stranded sRNA nucleic acids into mouse brain tissue | oral delivery of single-stranded sRNA nucleic acids into mouse femur | oral delivery of single-stranded sRNA nucleic acids into mouse heart tissue | oral delivery of single-stranded sRNA nucleic acids into mouse intestinal tissue | oral delivery of single-stranded sRNA nucleic acids into mouse kidney tissue | oral delivery of single-stranded sRNA nucleic acids into mouse liver tissue | oral delivery of single-stranded sRNA nucleic acids into mouse lung tissue | oral delivery of single-stranded sRNA nucleic acids into mouse spleen tissue | oral delivery of single-stranded sRNA nucleic acids into mouse stomach tissue
1 | O=C(O)CCC(=O)O [Lipid 628, butanedioic acid] | best delivery efficacy | can effectively orally deliver | can effectively orally deliver | can effectively orally deliver | can effectively orally deliver | can effectively orally deliver | can effectively orally deliver | can effectively orally deliver | can effectively orally deliver | can effectively orally deliver | can effectively orally deliver
2 | O=C(O)C[C@H]1CCC(=O)[C@@H]1C/C=C\CCO [Lipid 543] | best delivery efficacy | can effectively orally deliver | can effectively orally deliver | can effectively orally deliver | can effectively orally deliver | can effectively orally deliver | can effectively orally deliver | can effectively orally deliver | can effectively orally deliver | can effectively orally deliver | can effectively orally deliver
3 | CC1(O)CCOC(=O)C1 (centres unmarked) [Lipid 603, 4-hydroxy-4-meth-yl-oxan-2-one] | best delivery efficacy | can effectively orally deliver | can effectively orally deliver | can effectively orally deliver | can effectively orally deliver | can effectively orally deliver | can effectively orally deliver | can effectively orally deliver | can effectively orally deliver | can effectively orally deliver | can effectively orally deliver
4 | CC/C=C/CCO [Lipid 526] | best delivery efficacy | can effectively orally deliver | can effectively orally deliver | can effectively orally deliver | can effectively orally deliver | can effectively orally deliver | can effectively orally deliver | can effectively orally deliver | can effectively orally deliver | can effectively orally deliver | can effectively orally deliver
5 | CCCCCCCC(C)C [Lipid 528, 2-methylnonane] | best delivery efficacy | can effectively orally deliver | can effectively orally deliver | can effectively orally deliver | can effectively orally deliver | can effectively orally deliver | can effectively orally deliver | can effectively orally deliver | can effectively orally deliver | can effectively orally deliver | can effectively orally deliver
6 | N[C@@H](CCCC(=O)O)C(=O)O [Lipid 595, (2S)-2-aminohexanedioic acid] | best delivery efficacy | can effectively orally deliver | can effectively orally deliver | can effectively orally deliver | can effectively orally deliver | can effectively orally deliver | can effectively orally deliver | can effectively orally deliver | can effectively orally deliver | can effectively orally deliver | can effectively orally deliver
7 | CCCCCC(=O)/C=C/C=O [Lipid 525, (E)-4-oxonon-2-enal] |  |  |  |  |  | can effectively orally deliver | can effectively orally deliver |  | can effectively orally deliver | can effectively orally deliver | can effectively orally deliver
